Experimental findings from ChEMBL document CHEMBL5321272 (J Med Chem, 2023) are described below.

Molecules are shown by their SMILES. Calls of active or inactive are those of the source. No cut-off for these calls is given here.

The target of series [1] is hERG (KCNH2) (Homo sapiens, UniProt Q12809). Kind of series: Inhibition of hERG expressed in HEK293 cells at 20 uM by whole cell patch clamp analysis. The series is classed as toxicity, cell-based. Conditions: HEK293 cells expressing hERG. (hERG is a cardiac potassium channel; its block is linked to QT prolongation.)
Series [2] deals with Mast/stem cell growth factor receptor Kit (Homo sapiens, UniProt P10721). In words: Inhibition of c-KIT (unknown origin) using peptide substrate TK-S and ATP as substrate incubated for 1 hr by HTRF assay. Type of series: toxicity. On the technique in general: In TR-FRET formats the signal depends on donor and acceptor labels being close together.
The nature of series [3]: Selectivity ratio of IC50 for inhibition of c-KIT (unknown origin) to IC50 for inhibition of FLT3 D835Y mutant (unknown origin).
Series [4] relates to BaF3. Kind of series: Antiproliferative activity against mouse BaF3 cells harboring FLT3 D835V mutant assessed as reduction in cell viability incubated for 72 hrs by CellTiter 96 Aqueous One Solution Cell Proliferation Assay. Type of series: functional, cell-based.
In series [5] the test system is BaF3. Kind of series: Antiproliferative activity against mouse BaF3 cells harboring FLT3 D835F mutant assessed as reduction in cell viability incubated for 72 hrs by CellTiter 96 Aqueous One Solution Cell Proliferation Assay. The series is classed as functional, cell-based.
Series [6] relates to BaF3. Kind of series: Antiproliferative activity against mouse BaF3 cells harboring FLT3 F691L mutant assessed as reduction in cell viability incubated for 72 hrs by CellTiter 96 Aqueous One Solution Cell Proliferation Assay. The series is classed as functional, cell-based.
A short description of series [7]: Half life in ICR mouse at 10 mg/kg, po. The series is classed as ADME, organism-based. Conditions: in vivo.
Series [8] is described as follows: Tmax in ICR mouse at 10 mg/kg, po. The series is classed as ADME, organism-based. Conditions: in vivo.
The nature of series [9]: Cmax in ICR mouse at 10 mg/kg, po. Conditions: in vivo. Also noted: dose 10 mg/kg, route po. The series is classed as ADME, organism-based.
Series [10] is described as follows: AUC (last) in ICR mouse at 10 mg/kg, po. The series is classed as ADME, organism-based. Also on record: dose 10 mg/kg, route po. Conditions: in vivo.
Series [11] in a line: AUC (infinity) in ICR mouse at 10 mg/kg, po. The series is classed as ADME, organism-based. Also noted: dose 10 mg/kg, route po. Conditions: in vivo.
The nature of series [12]: MRT (infinity) in ICR mouse at 10 mg/kg, po. The series is classed as ADME, organism-based. The settings on record: in vivo.
In series [13] the target is Receptor-type tyrosine-protein kinase FLT3 (Homo sapiens, UniProt P36888, D835Y).
Description: Inhibition of FLT3 D835Y mutant (unknown origin) using peptide substrate TK-S and ATP as substrate incubated for 1 hr by HTRF assay
For series [14], the target named is T1, Serine/threonine-protein kinase Chk1 (Homo sapiens, UniProt O14757).
T1 sequence (O14757 whole entry): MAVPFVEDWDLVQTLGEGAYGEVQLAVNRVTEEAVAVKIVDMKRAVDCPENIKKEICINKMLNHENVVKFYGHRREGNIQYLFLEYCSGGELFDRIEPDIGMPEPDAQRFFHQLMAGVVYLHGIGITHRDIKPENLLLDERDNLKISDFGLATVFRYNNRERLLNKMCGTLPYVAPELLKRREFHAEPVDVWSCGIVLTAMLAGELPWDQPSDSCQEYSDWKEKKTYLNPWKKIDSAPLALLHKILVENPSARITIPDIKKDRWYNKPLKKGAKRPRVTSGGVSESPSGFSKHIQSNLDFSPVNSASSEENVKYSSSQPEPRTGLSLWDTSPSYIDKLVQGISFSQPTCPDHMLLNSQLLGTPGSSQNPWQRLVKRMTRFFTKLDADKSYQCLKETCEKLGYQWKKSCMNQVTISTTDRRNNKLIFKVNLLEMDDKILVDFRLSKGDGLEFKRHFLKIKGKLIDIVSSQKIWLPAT
Description: Inhibition of CHK1 (unknown origin) using peptide substrate S1 and ATP as substrate incubated for 1 hr by HTRF assay

Series [15] relates to MV4-11. Kind of series: cells. The settings on record: Homo sapiens, MV4-11, 72 h.
Description: Antiproliferative activity against human MV4-11 cells assessed as reduction in cell viability incubated for 72 hrs by CellTiter 96 Aqueous One Solution Cell Proliferation Assay

Chain of Mast/stem cell growth factor receptor Kit (P10721 whole entry): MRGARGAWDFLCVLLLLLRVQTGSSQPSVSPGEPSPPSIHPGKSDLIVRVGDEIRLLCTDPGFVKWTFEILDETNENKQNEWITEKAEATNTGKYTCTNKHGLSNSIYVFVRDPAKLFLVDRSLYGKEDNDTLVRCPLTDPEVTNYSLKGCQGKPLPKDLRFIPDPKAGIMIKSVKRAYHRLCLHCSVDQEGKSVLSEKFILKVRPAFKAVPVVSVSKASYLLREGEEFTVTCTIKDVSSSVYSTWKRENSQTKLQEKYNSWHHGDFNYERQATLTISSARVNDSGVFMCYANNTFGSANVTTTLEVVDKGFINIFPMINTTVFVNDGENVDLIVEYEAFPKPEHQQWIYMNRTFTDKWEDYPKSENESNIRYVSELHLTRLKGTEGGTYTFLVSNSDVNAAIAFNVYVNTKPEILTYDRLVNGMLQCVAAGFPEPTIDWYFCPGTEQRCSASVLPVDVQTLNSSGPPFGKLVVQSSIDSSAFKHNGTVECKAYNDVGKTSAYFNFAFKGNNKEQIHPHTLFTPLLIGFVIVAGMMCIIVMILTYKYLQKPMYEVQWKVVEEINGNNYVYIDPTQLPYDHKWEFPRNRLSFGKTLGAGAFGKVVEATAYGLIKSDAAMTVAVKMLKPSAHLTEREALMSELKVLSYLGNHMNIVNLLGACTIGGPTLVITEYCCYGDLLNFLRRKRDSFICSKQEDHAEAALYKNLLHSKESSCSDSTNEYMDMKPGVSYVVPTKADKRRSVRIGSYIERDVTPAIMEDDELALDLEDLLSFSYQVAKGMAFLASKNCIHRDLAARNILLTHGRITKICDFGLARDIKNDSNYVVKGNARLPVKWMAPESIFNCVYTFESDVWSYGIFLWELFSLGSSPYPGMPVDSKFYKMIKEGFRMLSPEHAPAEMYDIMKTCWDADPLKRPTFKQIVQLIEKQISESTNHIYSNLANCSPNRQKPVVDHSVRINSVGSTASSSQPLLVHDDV
Chain of hERG (KCNH2) (Q12809 whole entry): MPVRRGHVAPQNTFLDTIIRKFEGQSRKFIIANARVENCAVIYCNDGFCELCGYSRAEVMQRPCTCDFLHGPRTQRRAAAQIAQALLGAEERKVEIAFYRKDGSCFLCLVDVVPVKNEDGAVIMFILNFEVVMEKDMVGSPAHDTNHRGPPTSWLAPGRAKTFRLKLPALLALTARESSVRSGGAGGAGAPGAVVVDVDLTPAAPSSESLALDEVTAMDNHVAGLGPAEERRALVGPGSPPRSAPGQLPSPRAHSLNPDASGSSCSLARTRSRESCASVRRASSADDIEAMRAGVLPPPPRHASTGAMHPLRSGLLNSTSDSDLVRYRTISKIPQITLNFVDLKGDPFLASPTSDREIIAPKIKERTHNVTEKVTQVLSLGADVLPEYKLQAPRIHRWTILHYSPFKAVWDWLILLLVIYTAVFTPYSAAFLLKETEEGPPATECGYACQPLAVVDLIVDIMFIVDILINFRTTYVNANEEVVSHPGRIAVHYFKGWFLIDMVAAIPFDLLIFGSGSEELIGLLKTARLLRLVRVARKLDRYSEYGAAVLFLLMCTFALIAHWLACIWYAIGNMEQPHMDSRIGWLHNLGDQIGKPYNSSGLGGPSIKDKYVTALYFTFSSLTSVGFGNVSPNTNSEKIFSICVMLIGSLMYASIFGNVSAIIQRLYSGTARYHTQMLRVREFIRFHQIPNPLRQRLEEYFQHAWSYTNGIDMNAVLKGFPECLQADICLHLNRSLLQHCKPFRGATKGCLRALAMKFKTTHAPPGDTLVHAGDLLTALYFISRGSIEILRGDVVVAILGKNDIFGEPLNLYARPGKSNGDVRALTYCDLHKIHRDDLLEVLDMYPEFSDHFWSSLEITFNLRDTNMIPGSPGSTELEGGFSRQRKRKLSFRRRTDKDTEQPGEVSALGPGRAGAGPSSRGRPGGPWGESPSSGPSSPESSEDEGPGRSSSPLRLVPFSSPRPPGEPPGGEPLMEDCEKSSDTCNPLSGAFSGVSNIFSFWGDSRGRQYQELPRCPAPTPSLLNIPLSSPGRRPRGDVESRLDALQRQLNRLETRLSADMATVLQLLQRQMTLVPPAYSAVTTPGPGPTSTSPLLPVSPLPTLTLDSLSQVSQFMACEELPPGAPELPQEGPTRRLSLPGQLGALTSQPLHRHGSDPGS

Consider `CC(C)(O)C(=O)N1Cc2ccc(Nc3ncc(C(F)(F)F)c(N[C@H]4CC[C@@H](N)CC4)n3)cc2C1`, for which 20 µM produced 17.5% inhibition in series [1]. For the same molecule, the IC50 – broadly, the concentration that inhibits the measured activity by half – in [2] stood at 3090 nM; in [13], 1.35 nM; in series [14], 13.5 nM; in series [15] it was 0.5 nM. Further, the Ratio IC50 in series [3] turned out to be 2290. The outcome in series [4], in series [5] and in series [6] was Active. Moreover, the half-life – broadly, how long it takes for the measured level to halve – in series [7] is 0.63 h. For the same molecule, the Tmax (commonly the time from dosing to the highest level) in series [8] was determined as 2 h. Moreover, the Cmax (commonly the maximum level reached in the sampled fluid or tissue) in series [9] was found to be 263 ng/mL. Further, the AUC(0-t) (usually exposure summed from dosing to a finite time, without extrapolation to infinity) in series [10] worked out at 577 ng·h/mL. The AUC(0-inf) (in general, total exposure, with the tail of the curve extrapolated) in series [11] was 604 ng·h/mL. The MRT inf (in general, the average time that molecules of a dose stay in the body) in [12] was 1.92 h.
